Four substances from patent US20070116645A1, “Methods and compositions for inhibiting cholesterol uptake” (priority 2004, published 2007) can be followed below.

Data set [1] deals with CAV1-ANX2b heterocomplex. Kind of data set: Immunoprecipitation and immunoblot for the CAV1-ANX2b heterocomplex in morpholino-injected embryos. It counts as in vivo, zebrafish. The conditions noted are these: for CAV1-ANX2b heterocomplex present / ANX2b protein detected / CAV1 protein detected: 48 hpf embryos, MO injected at 1-8 cell stage; for ANX2b protein detected / CAV1 protein detected: FIG. 3A. The procedure:
(§1) All morpholino oligonucleotides were commercially obtained (GeneTools LLC, Philomath, Oreg.). Sequences used were: cav1, 5′-[…]-3′ (SEQ ID NO: 10); anx2b, 5′-[…]-3′ (SEQ ID NO: 11); anx2b (4 base mismatch), 5′-GCCAATT TCGTTAGTAGTTGAAGAG-3 (SEQ ID NO: 12)′; anx2a, 5′-[…]-3′ (SEQ ID NO: 13). MOs were dissolved in Danieau buffer (3) at a concentration of (1-3 μg/μl) and pressure injected into the yolk of early stage larvae (1-8 cell stage) as described (3).
The embryos were lysed in 1 ml of buffer (150 mM NaCl, 1.0% NP-40, 0.5% deoxycholate, 0.1% SDS, 50 mM Tris, pH 8.0) and protein amounts determined by Lowry. Equal amounts of lysate (50 ug) were mixed together in the lysis buffer for 1 hour at 37 °C. At the end of the incubation protein A-sepharose beads (blocked with lysis buffer and 30 mg/ml BSA) were used to pre-clear the samples. Pre-cleared samples were than incubated for 18 hours at 4° C. with the appropriate antibody (2 ug/sample) before adding blocked, protein A-sepharose beads and incubating an additional 2 hours at 4° C. The beads were collected by centrifugation, washed five times in high salt RIPA buffer (500 mM NaCl). The samples were than analyzed by SDS-PAGE and immunoblot.

The subject of data set [2] is zebrafish larvae. Kind of data set: In vivo assay for cholesterol transport (NBD-cholesterol intestinal fluorescence). The conditions noted are these: 5 dpf larvae, three independent experiments, ANOVA p<0.00001. The procedure: Embryos (uninjected or anx2b MO injected) at 5 dpf were labeled with NBD-cholesterol (1,26) and blind-sorted into three groups based on intestinal fluorescence, each assigned a numerical value: 1=no or weak fluorescence, 2=moderate, 3=strong; total n=41 uninjected, 55 injected.
Zebrafish larvae were labeled (2 h) with NBD-Cholesterol prepared as previously described (1) in embryo medium (21), anesthetized (tricaine, 170 ug/ml) and placed in depression slides. Fluorescent images were captured using a Zeiss Axiocam 2 mounted on a Leica MZFL-III. For statistical analysis intestinal fluorescence was scored on a three point scale (weak, moderate and bright) and analyzed (ANOVA).

Data set [3] deals with zebrafish embryos. Kind of data set: Uptake of 14C-labeled glucose in embryos. It counts as in vivo. To be noted: 5 dpf embryos, data not shown. The procedure: Embryos (uninjected or anx2b MO injected) at 5 dpf were placed at ten per tube in 0.5 ml embryo medium (21) containing methyl-D-glucose, 3-O-[glucose-^14C(U)] (American Radiolabeled Chemicals, Inc.) at a concentration of 12.5 μM and incubated at room temperature for 2 hours. Embryos were then chased with 0.5 ml embryo medium with 125 μM unlabeled glucose and incubated 30 minutes, then rinsed three times with chase solution, transferred to fresh tubes, vigorously homogenized with a pestle, and transferred into scintillation fluid for liquid scintillation counting. Three separate trials with 2 or 3 tubes each of uninjected and injected embryos were performed.

Data set [4] concerns zebrafish embryos. Briefly: Embryo lipid composition by SPE and GC-MS (cholesterol, cholesteryl ester, triglycerides). It counts as in vivo. The conditions noted are these: 72 hpf embryos, FIG. 5C. The procedure:
Approximately 80 embryos at 72 hpf were placed in 0.7 ml of MBST/OG (25 mM MES, pH 6.5, 0.15 M NaCl, 1% (v/v) Triton X-100, 60 mM octylglucoside, 0.1% (w/v) SDS) and homogenized with a Tissue-Tearor™ homogenizer (Biospec Products, Inc). The sample was then sonicated (50 watts) for ten seconds, three times on ice, centrifuged at 1000×g for 5 minutes and the supernatant collected. Neutral lipids were isolated by Solid Phase Extraction (SPE) on an Oasis HLB 5 cc/200 mg LP Glass Cartridges (Waters, Milford Mass.). The columns were pre-conditioned with 3 ml of methyl tetr-butyl ether, then 3 ml methanol, and finally 3 ml of water. The sample (0.5 ml) was mixed with acetic acid (1 ml) and 5α-androstane-3α-17β-diol (recovery standard, 40 μl) and immediately applied to the column. The column was washed with 2 ml of 2% acetic acid followed by 2 ml of methanol (2%):acetic acid (2%). Neutral lipids were eluted with 3 ml of methyl tetr-butyl ether:methanol:acetic acid (75:23:2). The eluted material was dried under nitrogen, dissolved in 150 μl of hexane:isopropanol (3:2) and transferred to a gas chromatography vial. The material was dissolved in 20 μl of hexamethyldisilazane: pentafluoropropionic anhydride:acetonitrile (100:2:20) for 20 minutes at room temperature and […] was then injected onto a Chemstation gas chromatograph with a mass selective detector, Model 6890 (Agilent Technologies, Wilmington, Del.) and equipped with a SPE HT5 Aluminum Clad Fused Silica Capillary Column, 12 m, 0.32 mm ID, 0.1 um film (Supelco, Bellefonte, Pa.). The inlet temperature was 220° C., the interface temperature was 340° C. and the oven program was 140° C., hold 3 min, 20° C./min to 380° C., hold 5 min. Method of lipid detection was SIM mode with the following mass numbers: 416 for 5α-androstane-3α-17β-diol, 436 for TMS-cholesterol, 368 for cholesterol esters, 98 for triglycerides. A two step procedure was used to quantify the lipids. […]

The subject of data set [5] is zebrafish embryos. Kind of data set: Developmental phenotype of morpholino-injected embryos (morphology, myoD in situ hybridization). It counts as in vivo. The procedure:
as §1
Methods for breeding and raising zebrafish were followed as described (21). Embryos were obtained from natural matings of wild-type (Oregon, AB) fish and staged according to criteria previously outlined (22) and by hours post-fertilization (hpf). Digoxigenin-labeled RNA probes synthesized for each gene were hybridized to embryos or larvae at various developmental stages. In situ hybridization for anx2b and cav1 expression was carried out as previously described (22).

“Also recorded” adds a separate entry of the source.

“anx2b MO containing 4 bases mismatched: control morpholino, anx2b with 4 base mismatch, 5′-GCCAATT TCGTTAGTAGTTGAAGAG-3 (SEQ ID NO: 12) (antisense GCCAATTTCGTTAGTAGTTGAAGAG; all phosphorodiamidate morpholino (PMO); mismatch control morpholino) [reference compound]”: the CAV1-ANX2b heterocomplex present entry in data set [1] is given as “contained the CAV1-ANX2b heterocomplex exactly like the uninjected embryos”.
Still for that read-out and setting: then “anx2a MO: morpholino antisense oligonucleotide against zebrafish anx2a, 5′-CTAAGAACTCAGAGACCAAAGCCAT-3′ (SEQ ID NO: 13) (all phosphorodiamidate morpholino (PMO)) [reference compound]”, with “contained the CAV1-ANX2b heterocomplex exactly like the uninjected embryos”.
In the case of “anx2b MO: morpholino antisense oligonucleotide against zebrafish anx2b, 5′-GCCATTTTCCTTAGTTGTTGTAGAG-3′ (SEQ ID NO: 11) (all phosphorodiamidate morpholino (PMO))”, in data set [2], the “Intestinal fluorescence after feeding NBD-cholesterol” value is listed as “a subset of the injected larvae failed to accumulate the fluorescent cholesterol analog in the digestive tract; also recorded: significant reduction in intestinal fluorescence”. Besides, the “ANX2b and complex detected (duration of MO effect)” value in data set [1] (24, 48 and 72 hpf, FIG. 5B lanes 2-4) is “no ANX2b and thus no complex is detected”. Also, in data set [1], the CAV1-ANX2b heterocomplex present result is “only CAV protein monomer”, the ANX2b protein detected entry was “did not contain ANX2b protein” and the CAV1 protein detected result was “only detected as a monomer”. For the same substance, the “ANX2b detected (duration of MO effect)” value in data set [1] (96 hpf, FIG. 5B lane 5) is given as “again detected”. In data set [3], the “Uptake of 14C-labeled glucose versus uninjected embryos” value was “the same”. Besides, in data set [4], the “Level of cholesterol versus uninjected embryos” value was “significantly lower”, the “Level of cholesteryl ester versus uninjected embryos” value is given as “significantly lower” and the “Level of triglycerides versus uninjected embryos” value is “unaffected”. Further, the Developmental abnormalities result in data set [5] (zebrafish, in vivo) is reported as “did not show any obvious developmental abnormalities”.
Consider “cav1 MO: morpholino antisense oligonucleotide against zebrafish cav1, 5′-TGTCCCGTCCTTGTATCCGCTAGTC-3′ (SEQ ID NO: 10) (all phosphorodiamidate morpholino (PMO))”, for which, in data set [1], the CAV1-ANX2b heterocomplex present entry was “only ANX2 protein monomer and no complex”; the ANX2b protein detected entry is “seen only as a monomer”; the CAV1 protein detected entry is given as “not detected”. The “Survival to the stage where NBD-cholesterol is ingested” value in data set [5] (MO-injected larvae) was “failed to survive to a stage where NBD-cholesterol is ingested”. Moreover, in data set [5] (zebrafish, in vivo), the Developmental abnormalities entry is “early developmental abnormalities including defects in axis elongation and somite patterning”; the “Somite morphology (myoD riboprobe)” value was “abnormal somites”.
